# Laboratory results published in patent US20220105053A1, “PHARMACEUTICAL COMPOSITION FOR PREVENTION OR TREATMENT OF ACIDOSIS” (HAIM BIO CO., LTD., priority 2018, published 2022).
# Test system: A549 cancer cells
# Assay: Lactic acid concentration-decreasing effect in A549 cell culture (lactate assay, luminescence, normalised to cell number)
# Assay type: cell-based, human
# Conditions: 50 μM candidate substance, 24 hours, compared with the positive control (50 μM sodium oxamate), average of 3 experiments
# Method: To this end, first, A549 cancer cells (adenocarcinomic human alveolar basal epithelial cells, Cat #CCL-185) obtained from the American Type Culture Collection (ATCC) were cultured in RPMI 1640 culture medium containing 10% fetal bovine serum and 1% antibiotic-antimycotic agent under an environment at 37° C. and 5% CO2, and passages were performed every 3 days. Lactic acid is produced in large amounts when glycolysis is activated in hypoxia. Cancer cells, which are densely packed with cells, are very active in energy-consuming activities, and thus are known to produce lactic acid in large amounts.
# The cells were seeded in 24-well plates at a concentration of 3×10^5 cells/well, and incubation was performed overnight. Then, each plate was treated with each of the candidate substances (at a concentration of 50 μM) as shown in Table 1 which had been dissolved in dimethyl sulfoxide (DMSO). Incubation was further performed for 24 hours. For the negative control for the candidate substances, no treatment was performed; and for the positive control, treatment with sodium oxamate, which is conventionally known as a therapeutic agent for lactic acidosis, was performed at the same concentration (50 μM) or the […] higher concentration (50 mM). Subsequently, 50 μl of the cell culture solution obtained by being diluted with Dulbecco's Phosphate-Buffered Saline (DPBS), and 50 μl of the lactate assay reaction buffer (Promega, Madison, Wis., USA) were mixed and the mixture was added in a 96-well plate. Reaction was allowed to proceed at room temperature for 1 hour. Then, luminescence was measured with a spectrophotometer (Synergy HTX Multi-Reader, BioTek). At the same time, the number of cells in each sample was measured with a cell viability analysis kit (Cell Counting Kit-8), and calculation was performed so that the lactic acid measurement value in each sample could be compared with that in the negative control for the same number of cells.
row,Compound,lactic acid concentration-decreasing effect
1,"Nc1c(O)cccc1C(=O)CC(N)C(=O)O (racemic) [3-hydroxy-DL-kynurenine, 3-Hydroxy-DL-kynurenine]",about 20%
2,"CCN(CC)c1ccc(C=O)cc1 [diethylaminobenzaldehyde, Diethylaminobenzaldehyde]",about 20%
3,C=C(OP(=O)([O-])O)C(=O)O.O.[Na+] [Phospho(enol)pyruvic acid monosodium salt hydrate],about 15%
4,"N.N.[Cl][Pt][Cl] [cis-diamminedichloridoplatinum, Cis-diamminedichloridoplatinum]",about 15%
